In ChEMBL document CHEMBL1138584, “(3,3-Difluoro-pyrrolidin-1-yl)-[(2S,4S)-(4-(4-pyrimidin-2-yl-piperazin-1-yl)-pyrrolidin-2-yl]-methanone: a potent, selective, orally active dipeptidyl peptidase IV inhibitor” (Bioorg Med Chem Lett, 2009):
Converted amounts (≈) assume the structure as drawn.

Columns and labels:
hERG (KCNH2) = hERG (KCNH2) (Homo sapiens, UniProt Q12809); experiment: Displacement of [3H]dofetilide from human ERG expressed in HEK293 cells at 10 uM
Dipeptidyl peptidase 8 = Dipeptidyl peptidase 8 (Homo sapiens, UniProt Q6V1X1); experiment: Inhibition of human recombinant DPP8
Dipeptidyl peptidase 2 = Dipeptidyl peptidase 2 (Homo sapiens, UniProt Q9UHL4); experiment: Inhibition of human recombinant DPP2
in vivo [1] = settings: Sprague-Dawley, rat, po, 5 mg/kg
Description: Cmax in Sprague-Dawley rat at 5 mg/kg, po

[2] = Volume of distribution at steady state in Sprague-Dawley rat at 1 mg/kg, iv and 5 mg/kg, po; settings: in vivo
[3] = molecular target: Voltage-gated inwardly rectifying potassium channel KCNH2 (Homo sapiens, UniProt Q12809); experiment: Inhibition of human ERG by patch-clamp technique
[4] = Bioavailability in Sprague-Dawley rat at 1 mg/kg, iv and 5 mg/kg, po; settings: in vivo
in vivo [5] = settings: Sprague-Dawley, rat, plasma, po, 5 mg/kg
Description: AUC in Sprague-Dawley rat at 5 mg/kg, po

[6] = Half life in Sprague-Dawley rat at 1 mg/kg, iv and 5 mg/kg, po; settings: in vivo
[7] = Clearance in Sprague-Dawley rat plasma at 1 mg/kg, iv and 5 mg/kg, po
[8] = Apparent permeability from basolateral to apical side in MDCK cells; settings: dog
[9] = Apparent permeability from apical to basolateral side in MDCK cells; settings: dog
[10] = Cmax in cynomolgus monkey at 1 mg/kg, po; type: ADME, organism-based, Macaca fascicularis; parameters: dose 1 mg/kg, route oral; settings: in vivo
[11] = Cmax in dog at 1 mg/kg, po; type: ADME, organism-based, Canis lupus familiaris; parameters: dose 1 mg/kg, route oral; settings: in vivo
Cytochrome P450 2D6 = Cytochrome P450 2D6 (Homo sapiens, UniProt P10635); experiment: Inhibition of CYP2D6; type: ADME
[12] = Half life in dog at 1 mg/kg, iv and 1 mg/kg, po; type: ADME, organism-based, Canis lupus familiaris; settings: in vivo
[13] = Volume of distribution at steady state in cynomolgus monkey at 1 mg/kg, iv and 1 mg/kg, po; type: ADME, organism-based, Macaca fascicularis; settings: in vivo, read-out: Vdss
Cytochrome P450 3A4 = Cytochrome P450 3A4 (Homo sapiens, UniProt P08684); experiment: Inhibition of CYP3A4; type: ADME
Rattus norvegicus = species on record: Rattus norvegicus; experiment: Ex vivo inhibition of DPP4 in Sprague-Dawley rat; type: functional, organism-based
[14] = Tmax in human at 0.3 to 300 mg; type: ADME, organism-based; settings: in vivo
[15] = Half life in cynomolgus monkey at 1 mg/kg, iv and 1 mg/kg, po; type: ADME, organism-based, Macaca fascicularis; settings: in vivo
Cytochrome P450 2C9 = Cytochrome P450 2C9 (Homo sapiens, UniProt P11712); experiment: Inhibition of CYP2C9; type: ADME
Prolyl endopeptidase = molecular target: T1, Prolyl endopeptidase (Homo sapiens, UniProt P48147); experiment: Inhibition of POP
T1 sequence (P48147 whole entry): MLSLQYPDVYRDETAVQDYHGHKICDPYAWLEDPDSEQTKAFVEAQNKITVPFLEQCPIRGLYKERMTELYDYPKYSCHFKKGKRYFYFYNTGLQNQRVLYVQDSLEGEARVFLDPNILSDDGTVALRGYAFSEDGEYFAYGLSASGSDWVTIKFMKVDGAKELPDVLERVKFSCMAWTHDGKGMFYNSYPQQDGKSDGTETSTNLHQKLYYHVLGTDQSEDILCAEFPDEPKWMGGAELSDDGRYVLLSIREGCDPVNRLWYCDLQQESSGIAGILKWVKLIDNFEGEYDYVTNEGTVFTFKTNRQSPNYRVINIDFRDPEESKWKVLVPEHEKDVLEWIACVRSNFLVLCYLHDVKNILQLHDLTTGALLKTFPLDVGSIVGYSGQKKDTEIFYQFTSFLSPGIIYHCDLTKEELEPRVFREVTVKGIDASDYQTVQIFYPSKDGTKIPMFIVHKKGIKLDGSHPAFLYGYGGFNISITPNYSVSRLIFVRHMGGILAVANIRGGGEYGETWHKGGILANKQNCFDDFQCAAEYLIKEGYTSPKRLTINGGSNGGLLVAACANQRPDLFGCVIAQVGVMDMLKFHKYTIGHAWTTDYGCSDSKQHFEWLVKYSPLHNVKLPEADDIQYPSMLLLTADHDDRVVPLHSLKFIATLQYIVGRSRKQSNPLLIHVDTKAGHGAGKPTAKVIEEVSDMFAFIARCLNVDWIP

Cytochrome P450 1A2 = molecular target: T2, Cytochrome P450 1A2 (Homo sapiens, UniProt P05177); experiment: Inhibition of CYP1A2; type: ADME
T2 sequence (P05177 whole entry): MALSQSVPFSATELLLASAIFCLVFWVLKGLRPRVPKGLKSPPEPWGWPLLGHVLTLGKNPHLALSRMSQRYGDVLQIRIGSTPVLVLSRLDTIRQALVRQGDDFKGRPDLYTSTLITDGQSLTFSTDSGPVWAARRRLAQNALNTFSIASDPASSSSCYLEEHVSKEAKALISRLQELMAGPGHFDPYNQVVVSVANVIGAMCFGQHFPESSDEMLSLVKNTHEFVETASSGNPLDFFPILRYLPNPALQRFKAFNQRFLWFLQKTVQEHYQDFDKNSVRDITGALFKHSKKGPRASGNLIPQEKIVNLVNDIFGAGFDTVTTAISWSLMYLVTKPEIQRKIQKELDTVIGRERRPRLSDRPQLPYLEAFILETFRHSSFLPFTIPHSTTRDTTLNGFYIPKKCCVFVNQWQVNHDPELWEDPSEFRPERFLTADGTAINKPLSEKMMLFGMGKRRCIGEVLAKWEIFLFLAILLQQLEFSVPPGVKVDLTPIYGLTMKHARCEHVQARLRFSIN

Cytochrome P450 2C19 = Cytochrome P450 2C19 (Homo sapiens, UniProt P33261); experiment: Inhibition of CYP2C19; type: ADME
[16] = Fraction unbound in monkey; type: ADME, Macaca mulatta; settings: rhesus monkey
[17] = AUC in cynomolgus monkey at 1 mg/kg, po; type: ADME, organism-based, Macaca fascicularis; parameters: dose 1 mg/kg, route oral; settings: plasma
[18] = Bioavailability in cynomolgus monkey at 1 mg/kg, iv and 1 mg/kg, po; type: ADME, organism-based, Macaca fascicularis; settings: in vivo
[19] = Volume of distribution at steady state in dog at 1 mg/kg, iv and 1 mg/kg, po; type: ADME, organism-based, Canis lupus familiaris; settings: in vivo, read-out: Vdss
[20] = AUC in dog at 1 mg/kg, po; type: ADME, organism-based, Canis lupus familiaris; parameters: dose 1 mg/kg, route oral; settings: plasma
[21] = Fraction unbound in dog; type: ADME, Canis lupus familiaris
[22] = Bioavailability in dog at 1 mg/kg, iv and 1 mg/kg, po; type: ADME, organism-based, Canis lupus familiaris; settings: in vivo
[23] = Terminal half life in human at 0.3 to 300 mg; type: ADME, organism-based; settings: in vivo, read-out: beta t1/2 (converted)
[24] = Clearance in dog plasma at 1 mg/kg, iv and 1 mg/kg, po; type: ADME, organism-based, Canis lupus familiaris
Dipeptidyl peptidase 3 = molecular target: T3, Dipeptidyl peptidase 3 (Homo sapiens, UniProt Q9NY33); experiment: Inhibition of DPP3 in human erythrocytes; type: cell-based
T3 sequence (Q9NY33 whole entry): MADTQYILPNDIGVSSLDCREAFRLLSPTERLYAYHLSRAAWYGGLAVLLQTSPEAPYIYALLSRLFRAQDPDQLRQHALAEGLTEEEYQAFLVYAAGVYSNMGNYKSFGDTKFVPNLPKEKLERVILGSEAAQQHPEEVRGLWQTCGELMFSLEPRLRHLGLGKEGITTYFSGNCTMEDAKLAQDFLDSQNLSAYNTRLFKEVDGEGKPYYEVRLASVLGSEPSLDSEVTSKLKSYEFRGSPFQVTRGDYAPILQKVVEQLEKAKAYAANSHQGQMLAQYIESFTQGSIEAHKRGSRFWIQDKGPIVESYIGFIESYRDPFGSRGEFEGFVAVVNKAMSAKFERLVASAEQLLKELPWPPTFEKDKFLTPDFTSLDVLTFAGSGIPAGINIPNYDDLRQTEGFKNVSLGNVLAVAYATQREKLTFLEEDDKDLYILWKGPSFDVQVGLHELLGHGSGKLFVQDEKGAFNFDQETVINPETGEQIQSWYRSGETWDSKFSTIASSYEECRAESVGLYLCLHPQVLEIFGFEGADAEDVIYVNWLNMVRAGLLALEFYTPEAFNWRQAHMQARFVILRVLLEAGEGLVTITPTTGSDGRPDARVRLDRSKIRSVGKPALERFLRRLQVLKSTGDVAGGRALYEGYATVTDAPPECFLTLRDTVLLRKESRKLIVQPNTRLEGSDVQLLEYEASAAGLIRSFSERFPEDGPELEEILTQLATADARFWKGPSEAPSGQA

[25] = Clearance in cynomolgus monkey plasma at 1 mg/kg, iv and 1 mg/kg, po; type: ADME, organism-based, Macaca fascicularis
[26] = Fraction unbound in human; type: ADME
[27] = Fraction unbound in rat; type: ADME
[28] = HEK293 cells that express human ERG, probe [3H]dofetilide

Voltage-gated inwardly rectifying potassium channel KCNH2, sequence (Q12809 whole entry): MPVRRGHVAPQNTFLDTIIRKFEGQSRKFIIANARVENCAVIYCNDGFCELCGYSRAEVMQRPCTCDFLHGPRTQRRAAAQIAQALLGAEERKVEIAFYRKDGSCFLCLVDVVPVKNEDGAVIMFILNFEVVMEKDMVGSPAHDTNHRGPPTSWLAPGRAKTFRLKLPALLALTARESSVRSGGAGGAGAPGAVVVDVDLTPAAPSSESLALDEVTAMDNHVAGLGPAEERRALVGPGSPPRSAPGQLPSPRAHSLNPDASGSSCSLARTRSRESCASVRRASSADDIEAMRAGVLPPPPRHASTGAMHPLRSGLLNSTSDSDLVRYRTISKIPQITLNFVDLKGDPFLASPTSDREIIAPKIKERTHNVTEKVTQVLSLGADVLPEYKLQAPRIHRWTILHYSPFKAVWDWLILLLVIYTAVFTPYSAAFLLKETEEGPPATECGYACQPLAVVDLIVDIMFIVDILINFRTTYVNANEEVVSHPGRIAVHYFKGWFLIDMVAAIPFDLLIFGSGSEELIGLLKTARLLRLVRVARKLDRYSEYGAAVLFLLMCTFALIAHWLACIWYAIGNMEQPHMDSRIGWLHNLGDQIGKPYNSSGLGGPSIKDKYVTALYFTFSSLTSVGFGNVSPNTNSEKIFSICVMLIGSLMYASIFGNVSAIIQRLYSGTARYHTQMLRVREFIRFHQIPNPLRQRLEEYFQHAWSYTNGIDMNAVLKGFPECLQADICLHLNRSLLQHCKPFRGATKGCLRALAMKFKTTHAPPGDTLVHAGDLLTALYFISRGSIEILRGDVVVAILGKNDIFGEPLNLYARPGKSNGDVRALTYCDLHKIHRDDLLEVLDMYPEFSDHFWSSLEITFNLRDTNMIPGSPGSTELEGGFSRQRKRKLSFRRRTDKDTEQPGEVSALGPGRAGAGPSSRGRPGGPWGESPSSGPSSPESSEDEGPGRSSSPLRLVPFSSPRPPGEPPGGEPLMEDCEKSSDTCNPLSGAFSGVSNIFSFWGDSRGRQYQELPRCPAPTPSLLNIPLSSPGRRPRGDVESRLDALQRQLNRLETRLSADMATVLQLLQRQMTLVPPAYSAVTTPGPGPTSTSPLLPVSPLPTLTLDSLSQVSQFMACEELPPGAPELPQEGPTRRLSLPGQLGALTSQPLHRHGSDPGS
hERG (KCNH2), sequence (Q12809 whole entry): as above
Cytochrome P450 2D6, sequence (P10635 whole entry): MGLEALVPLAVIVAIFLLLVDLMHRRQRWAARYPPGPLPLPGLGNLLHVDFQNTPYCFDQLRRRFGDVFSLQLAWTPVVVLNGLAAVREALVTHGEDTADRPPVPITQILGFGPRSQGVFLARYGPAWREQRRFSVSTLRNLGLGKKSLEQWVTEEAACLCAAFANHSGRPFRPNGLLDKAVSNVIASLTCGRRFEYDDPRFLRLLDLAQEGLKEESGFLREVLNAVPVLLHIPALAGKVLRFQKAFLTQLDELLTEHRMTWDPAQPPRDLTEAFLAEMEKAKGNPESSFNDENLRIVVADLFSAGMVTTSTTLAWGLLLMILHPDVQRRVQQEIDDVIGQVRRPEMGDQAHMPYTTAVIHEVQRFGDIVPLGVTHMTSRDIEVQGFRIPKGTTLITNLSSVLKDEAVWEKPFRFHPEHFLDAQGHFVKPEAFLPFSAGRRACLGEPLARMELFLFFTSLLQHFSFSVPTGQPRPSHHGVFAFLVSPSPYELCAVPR
Cytochrome P450 2C9, sequence (P11712 whole entry): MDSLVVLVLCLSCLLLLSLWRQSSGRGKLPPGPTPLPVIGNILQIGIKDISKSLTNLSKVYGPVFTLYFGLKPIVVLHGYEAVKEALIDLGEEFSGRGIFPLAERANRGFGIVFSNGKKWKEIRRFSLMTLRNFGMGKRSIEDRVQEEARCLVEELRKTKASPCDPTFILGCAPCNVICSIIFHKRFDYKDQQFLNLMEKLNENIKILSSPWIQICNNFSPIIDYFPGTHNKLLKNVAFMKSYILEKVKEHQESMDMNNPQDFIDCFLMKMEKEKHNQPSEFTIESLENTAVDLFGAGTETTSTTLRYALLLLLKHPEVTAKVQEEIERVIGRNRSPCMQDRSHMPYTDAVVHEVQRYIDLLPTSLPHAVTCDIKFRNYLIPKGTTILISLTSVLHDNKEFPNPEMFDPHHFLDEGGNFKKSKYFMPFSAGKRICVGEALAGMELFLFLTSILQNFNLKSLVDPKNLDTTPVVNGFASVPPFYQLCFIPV
Cytochrome P450 3A4, sequence (P08684 whole entry): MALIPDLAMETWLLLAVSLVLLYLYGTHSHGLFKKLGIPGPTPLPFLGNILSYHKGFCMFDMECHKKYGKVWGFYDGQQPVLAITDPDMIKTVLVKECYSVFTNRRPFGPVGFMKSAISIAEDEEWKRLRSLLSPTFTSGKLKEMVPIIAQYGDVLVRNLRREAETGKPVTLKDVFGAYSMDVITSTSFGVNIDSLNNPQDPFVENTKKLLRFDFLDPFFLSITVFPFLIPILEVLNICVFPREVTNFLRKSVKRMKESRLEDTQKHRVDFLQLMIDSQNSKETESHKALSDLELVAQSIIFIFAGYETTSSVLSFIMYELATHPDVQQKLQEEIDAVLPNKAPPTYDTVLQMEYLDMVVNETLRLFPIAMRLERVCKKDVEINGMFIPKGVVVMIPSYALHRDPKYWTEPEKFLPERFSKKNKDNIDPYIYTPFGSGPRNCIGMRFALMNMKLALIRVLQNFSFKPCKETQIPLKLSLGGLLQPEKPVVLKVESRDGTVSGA
Dipeptidyl peptidase 8, sequence (Q6V1X1 whole entry): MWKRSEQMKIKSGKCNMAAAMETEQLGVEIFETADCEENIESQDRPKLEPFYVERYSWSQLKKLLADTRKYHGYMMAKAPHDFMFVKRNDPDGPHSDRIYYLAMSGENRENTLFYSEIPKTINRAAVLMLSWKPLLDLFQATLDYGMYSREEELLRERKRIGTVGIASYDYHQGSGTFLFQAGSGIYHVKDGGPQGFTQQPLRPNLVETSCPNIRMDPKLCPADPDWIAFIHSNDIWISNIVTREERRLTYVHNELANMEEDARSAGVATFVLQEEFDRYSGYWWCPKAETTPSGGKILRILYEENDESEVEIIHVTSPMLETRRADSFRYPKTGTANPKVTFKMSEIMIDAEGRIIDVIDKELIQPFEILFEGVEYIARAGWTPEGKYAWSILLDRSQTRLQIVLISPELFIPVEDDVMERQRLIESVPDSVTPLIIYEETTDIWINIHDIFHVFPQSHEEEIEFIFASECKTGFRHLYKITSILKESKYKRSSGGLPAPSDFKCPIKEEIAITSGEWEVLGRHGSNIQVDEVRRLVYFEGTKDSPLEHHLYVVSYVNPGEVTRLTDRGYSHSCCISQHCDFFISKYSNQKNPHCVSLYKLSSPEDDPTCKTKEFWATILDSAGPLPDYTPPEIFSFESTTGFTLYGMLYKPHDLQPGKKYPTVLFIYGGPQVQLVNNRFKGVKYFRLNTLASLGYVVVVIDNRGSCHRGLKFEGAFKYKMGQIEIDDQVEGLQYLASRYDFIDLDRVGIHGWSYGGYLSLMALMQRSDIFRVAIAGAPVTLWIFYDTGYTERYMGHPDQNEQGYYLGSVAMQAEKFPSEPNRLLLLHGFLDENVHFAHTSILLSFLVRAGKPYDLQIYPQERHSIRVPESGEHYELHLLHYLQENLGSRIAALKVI

O=C([C@@H]1C[C@H](N2CCN(c3ncccn3)CC2)CN1)N1C[C@@H](F)[C@H](F)C1
inhibition at 10 µM (hERG (KCNH2); hek293): -1.6%

O=C([C@@H]1C[C@H](N2CCN(c3ncccn3)CC2)CN1)N1CC(F)C1
IC50 (Dipeptidyl peptidase 8): > 30 µM
IC50 (Dipeptidyl peptidase 2): > 30 µM

O=C([C@@H]1C[C@H](N2CCN(c3ncccn3)CC2)CN1)N1C[C@@H](F)[C@@H](F)C1
inhibition at 10 µM (hERG (KCNH2); hek293): 7.2%
Cmax (in vivo [1]): 1820 ng/mL
Vd [2]: 1.9 L/kg
IC50 [3]: 54 µM
bioavailability [4]: 93%
AUC (in vivo [5]): 3950 ng·h/mL
half-life [6]: 2.3 h
clearance [7]: 27 mL/min/kg

O=C([C@@H]1C[C@H](N2CCN(c3noc4ccccc34)CC2)CN1)N1CCC(F)(F)C1
inhibition at 10 µM (hERG (KCNH2); [28]): 26.7%
Papp B→A [8]: 11.2 ×10⁻⁶ cm/s
Papp A→B [9]: 18.6 ×10⁻⁶ cm/s

O=C([C@@H]1C[C@H](N2CCN(c3nc4cnccc4o3)CC2)CN1)N1CCC(F)(F)C1
inhibition at 10 µM (hERG (KCNH2); [28]): 8.1%

O=C([C@@H]1C[C@H](N2CCN(c3nc4cccnc4o3)CC2)CN1)N1CCC(F)(F)C1
inhibition at 10 µM (hERG (KCNH2); [28]): 7.4%

N#Cc1cccnc1N1CCN([C@@H]2CN[C@H](C(=O)N3CCC(F)(F)C3)C2)CC1
inhibition at 10 µM (hERG (KCNH2); [28]): -7.3%
Cmax (in vivo [1]): 237 ng/mL
Vd [2]: 1.8 L/kg
IC50 [3]: > 10 µM
Papp B→A [8]: 13.5 ×10⁻⁶ cm/s
bioavailability [4]: 20%
Papp A→B [9]: 10.4 ×10⁻⁶ cm/s
AUC (in vivo [5]): 276 ng·h/mL
half-life [6]: 1.5 h
clearance [7]: 61 mL/min/kg

O=C([C@@H]1C[C@H](N2CCN(c3ncccn3)CC2)CN1)N1CCC(F)(F)C1 [GOSOGLIPTIN]
Cmax [10]: 517 ng/mL
inhibition at 10 µM (hERG (KCNH2); hek293): 14.9%
Cmax (in vivo [1]): 1410 ng/mL
Cmax [11]: 1530 ng/mL
IC50 (Cytochrome P450 2D6): > 30 µM
Vd [2]: 1.9 L/kg
IC50 [3]: 126 µM
half-life [12]: 7.6 h
Vd [13]: 1 L/kg
IC50 (Cytochrome P450 3A4): > 30 µM
Emax (Rattus norvegicus): 98%
IC50 (Rattus norvegicus): 1.3 ng/mL (≈ 3.55 nM)
Tmax [14]: 0.5 h
half-life [15]: 7.6 h
bioavailability [4]: 109%
IC50 (Cytochrome P450 2C9): > 30 µM
IC50 (Prolyl endopeptidase): > 30 µM
IC50 (Cytochrome P450 1A2): > 30 µM
IC50 (Cytochrome P450 2C19): > 30 µM
fraction unbound [16]: 0.8
AUC [17]: 843 ng·h/mL
bioavailability [18]: 71%
Vd [19]: 0.7 L/kg
AUC [20]: 7160 ng·h/mL
AUC (in vivo [5]): 2400 ng·h/mL
fraction unbound [21]: 0.8
bioavailability [22]: 95%
half-life [23]: 15.1 h
half-life [6]: 2.5 h
clearance [24]: 3.7 mL/min/kg
clearance [7]: 38 mL/min/kg
IC50 (Dipeptidyl peptidase 3): > 30 µM
clearance [25]: 7.6 mL/min/kg
fraction unbound [26]: 0.8
fraction unbound [27]: 0.8
